Test results published in ChEMBL document CHEMBL4138146, “A Schmidt rearrangement-mediated synthesis of novel tetrahydro-benzo[1,4]diazepin-5-ones as potential anticancer and antiprotozoal agents” (Eur J Med Chem, 2017).
In brackets after ≈: the same amount, converted by molar mass.

How the values were obtained:
HL-60(TB) = experiment: Growth inhibition of human HL-60(TB) cells assessed as cell growth at 10 uM incubated for 48 hrs by sulforhodamine B assay relative to control; format: functional; settings: HL-60, 48 h, read-out: Activity
K562 = experiment: Growth inhibition of human K562 cells assessed as cell growth at 10 uM incubated for 48 hrs by sulforhodamine B assay relative to control; format: functional; settings: K562, 48 h, read-out: Activity
RPMI-8226 = experiment: Growth inhibition of human RPMI8226 cells assessed as cell growth at 10 uM incubated for 48 hrs by sulforhodamine B assay relative to control; format: functional; settings: RPMI-8226, 48 h, read-out: Activity
SR [1] = experiment: Growth inhibition of human SR cells assessed as cell growth at 10 uM incubated for 48 hrs by sulforhodamine B assay relative to control; format: functional; settings: read-out: Activity
A549 = experiment: Growth inhibition of human A549/ATCC cells assessed as cell growth at 10 uM incubated for 48 hrs by sulforhodamine B assay relative to control; format: functional; settings: A549, 48 h, read-out: Activity
EKVX = experiment: Growth inhibition of human EKVX cells assessed as cell growth at 10 uM incubated for 48 hrs by sulforhodamine B assay relative to control; format: functional; settings: read-out: Activity
NCI-H322M [2] = experiment: Growth inhibition of human NCI-H322M cells assessed as cell growth at 10 uM incubated for 48 hrs by sulforhodamine B assay relative to control; format: functional; settings: read-out: Activity
NCI-H460 = experiment: Growth inhibition of human NCI-H460 cells assessed as cell growth at 10 uM incubated for 48 hrs by sulforhodamine B assay relative to control; format: functional; settings: NCI-H460, 48 h, read-out: Activity
HCT-15 = experiment: Growth inhibition of human HCT15 cells assessed as cell growth at 10 uM incubated for 48 hrs by sulforhodamine B assay relative to control; format: functional; settings: HCT-15, 48 h, read-out: Activity
KM12 = experiment: Growth inhibition of human KM12 cells assessed as cell growth at 10 uM incubated for 48 hrs by sulforhodamine B assay relative to control; format: functional; settings: KM12, 48 h, read-out: Activity
SW-620 = experiment: Growth inhibition of human SW620 cells assessed as cell growth at 10 uM incubated for 48 hrs by sulforhodamine B assay relative to control; format: functional; settings: SW-620, 48 h, read-out: Activity
SF-295 = experiment: Growth inhibition of human SF295 cells assessed as cell growth at 10 uM incubated for 48 hrs by sulforhodamine B assay relative to control; format: functional; settings: SF-295, 48 h, read-out: Activity
SNB-19 = experiment: Growth inhibition of human SNB19 cells assessed as cell growth at 10 uM incubated for 48 hrs by sulforhodamine B assay relative to control; format: functional; settings: SNB-19, 48 h, read-out: Activity
U-251 = experiment: Growth inhibition of human U251 cells assessed as cell growth at 10 uM incubated for 48 hrs by sulforhodamine B assay relative to control; format: functional; settings: U-251, 48 h, read-out: Activity
LOX IMVI = experiment: Growth inhibition of human LOXIMVI cells assessed as cell growth at 10 uM incubated for 48 hrs by sulforhodamine B assay relative to control; format: functional; settings: read-out: Activity
SK-MEL-2 = experiment: Growth inhibition of human SK-MEL-2 cells assessed as cell growth at 10 uM incubated for 48 hrs by sulforhodamine B assay relative to control; format: functional; settings: SK-MEL-2, 48 h, read-out: Activity
SK-MEL-28 = experiment: Growth inhibition of human SK-MEL-28 cells assessed as cell growth at 10 uM incubated for 48 hrs by sulforhodamine B assay relative to control; format: functional; settings: SK-MEL-28, 48 h, read-out: Activity
OVCAR-3 = experiment: Growth inhibition of human OVCAR3 cells assessed as cell growth at 10 uM incubated for 48 hrs by sulforhodamine B assay relative to control; format: functional; settings: OVCAR-3, 48 h, read-out: Activity
SK-OV-3 = experiment: Growth inhibition of human SKOV3 cells assessed as cell growth at 10 uM incubated for 48 hrs by sulforhodamine B assay relative to control; format: functional; settings: SK-OV-3, 48 h, read-out: Activity
786-0 = experiment: Growth inhibition of human 786-0 cells assessed as cell growth at 10 uM incubated for 48 hrs by sulforhodamine B assay relative to control; format: functional; settings: 786-0, 48 h, read-out: Activity
CAKI-1 = experiment: Growth inhibition of human Caki1 cells assessed as cell growth at 10 uM incubated for 48 hrs by sulforhodamine B assay relative to control; format: functional; settings: CAKI-1, 48 h, read-out: Activity
SN12C = experiment: Growth inhibition of human SN12C cells assessed as cell growth at 10 uM incubated for 48 hrs by sulforhodamine B assay relative to control; format: functional; settings: read-out: Activity
TK-10 = experiment: Growth inhibition of human TK10 cells assessed as cell growth at 10 uM incubated for 48 hrs by sulforhodamine B assay relative to control; format: functional; settings: TK-10, 48 h, read-out: Activity
MCF7 [3] = experiment: Growth inhibition of human MCF7 cells assessed as cell growth at 10 uM incubated for 48 hrs by sulforhodamine B assay relative to control; format: functional; settings: MCF7, 48 h, read-out: Activity
UACC-257 = experiment: Growth inhibition of human UACC257 cells assessed as cell growth at 10 uM incubated for 48 hrs by sulforhodamine B assay relative to control; format: functional; settings: UACC-257, 48 h, read-out: Activity
IGROV-1 = experiment: Growth inhibition of human IGROV1 cells assessed as cell growth at 10 uM incubated for 48 hrs by sulforhodamine B assay relative to control; format: functional; settings: IGROV-1, 48 h, read-out: Activity
MOLT-4 = experiment: Growth inhibition of human MOLT4 cells assessed as cell growth at 10 uM incubated for 48 hrs by sulforhodamine B assay relative to control; format: functional; settings: MOLT-4, 48 h, read-out: Activity
U-937 = experiment: Cytotoxicity against human U937 cells after 72 hrs by MTT assay; format: functional; settings: U-937, 72 h, read-out: LC50 (the source's name)
Plasmodium falciparum = experiment: Antimalarial activity against chloroquine-sensitive Plasmodium falciparum 3D7 incubated for 48 hrs by malstat reagent based LDH release assay; format: functional, organism-based; settings: 3D7, 48 h
Trypanosoma cruzi = experiment: Antitrypanosomal activity against Trypanosoma cruzi Tulahuen amastigote forms infected in human U937 cells after 72 hrs by beta-galactosidase reporter gene assay; format: functional, organism-based; settings: U-937, 72 h
Leishmania panamensis = experiment: Antileishmanial activity against EpiR/GFP fused Leishmania panamensis MHOM/CO/87/UA140 intracellular amastigotes infected in human […] cells after 72 hrs by flow cytometric method; format: functional, organism-based; settings: MHOM/CO/87/UA140, 72 h
SR [4] = experiment: Growth inhibition of human SR cells incubated for 48 hrs by sulforhodamine B assay; format: functional
NCI-H322M [5] = experiment: Growth inhibition of human NCI-H322M cells incubated for 48 hrs by sulforhodamine B assay; format: functional
NCI/ADR-RES = experiment: Growth inhibition of human NCI/ADR-RES cells incubated for 48 hrs by sulforhodamine B assay; format: functional; settings: read-out: LC50 (the source's name)
MCF7 [6] = experiment: Growth inhibition of human MCF7 cells incubated for 48 hrs by sulforhodamine B assay; format: functional; settings: MCF7, 48 h

| SMILES | growth at 10 µM (HL-60(TB)) [%] | growth at 10 µM (K562) [%] | growth at 10 µM (RPMI-8226) [%] | growth at 10 µM (SR [1]) [%] | growth at 10 µM (A549) [%] | growth at 10 µM (EKVX) [%] | growth at 10 µM (NCI-H322M [2]) [%] | growth at 10 µM (NCI-H460) [%] | growth at 10 µM (HCT-15) [%] | growth at 10 µM (KM12) [%] | growth at 10 µM (SW-620) [%] | growth at 10 µM (SF-295) [%] | growth at 10 µM (SNB-19) [%] | growth at 10 µM (U-251) [%] | growth at 10 µM (LOX IMVI) [%] | growth at 10 µM (SK-MEL-2) [%] | growth at 10 µM (SK-MEL-28) [%] | growth at 10 µM (OVCAR-3) [%] | growth at 10 µM (SK-OV-3) [%] | growth at 10 µM (786-0) [%] | other results |
| --- | --- | --- | --- | --- | --- | --- | --- | --- | --- | --- | --- | --- | --- | --- | --- | --- | --- | --- | --- | --- | --- |
| Cc1cccc2cc(C3CNC(=O)c4ccccc4N3)c(=O)[nH]c12 (configuration not stated) | 116 | 118 | 114 | 110 | 91.7 | 98.4 | 92 | 109 | 102 | 99.6 | 110 | 98.8 | 114 | 94.5 | 94.3 | 96.9 | 102 | 104 | 96.9 | 111 | growth at 10 µM (CAKI-1): 100%; growth at 10 µM (SN12C): 114%; growth at 10 µM (TK-10): 94.6%; growth at 10 µM (MCF7 [3]): 98.8%; growth at 10 µM (UACC-257): 100%; growth at 10 µM (IGROV-1): 106% |
| Cc1ccc2[nH]c(=O)c(C3CNC(=O)c4ccccc4N3)cc2c1 (configuration not stated) | 107 | 111 | 102 | 133 | 95.7 | 102 | 110 | 106 | 105 | 102 | 106 | 103 | 99.3 | 99.5 | 96.8 | 110 | 108 | 107 | 110 | 103 | growth at 10 µM (MOLT-4): 113%; growth at 10 µM (CAKI-1): 92.1%; growth at 10 µM (SN12C): 99.7%; growth at 10 µM (TK-10): 104%; growth at 10 µM (MCF7 [3]): 102%; CC50 (U-937): 52.8 µg/mL (≈ 165 µM); EC50 (Plasmodium falciparum): 60.9 µg/mL (≈ 191 µM); EC50 (Trypanosoma cruzi): 46.3 µg/mL (≈ 145 µM); EC50 (Leishmania panamensis): 22.9 µg/mL (≈ 71.8 µM) |
| O=C1NCC(c2cc3ccccc3[nH]c2=O)Nc2ccccc21 (configuration not stated) | 95.7 | 90.2 | 106 | 100 | 92.4 | 106 | 100 | 105 | 106 | 103 | 102 | 106 | 102 | 102 | 98.5 | 100 | 103 | 111 | 89.9 | 100 | growth at 10 µM (MOLT-4): 111%; growth at 10 µM (CAKI-1): 88.1%; growth at 10 µM (SN12C): 99.7%; growth at 10 µM (TK-10): 87.8%; growth at 10 µM (MCF7 [3]): 103%; CC50 (U-937): 36.3 µg/mL (≈ 119 µM); EC50 (Plasmodium falciparum): 64.7 µg/mL (≈ 212 µM); EC50 (Trypanosoma cruzi): 48.8 µg/mL (≈ 160 µM); EC50 (Leishmania panamensis): 110 µg/mL (≈ 361 µM) |
| CCCCOc1nc2c(C)cccc2cc1C1CNC(=O)c2ccccc2N1 (configuration not stated) | 26.2 | 19 | 57.5 | 18.1 | 60 | 61.9 | 105 | 56.2 | 43.4 | 56.4 | 42.3 | 52.5 | 47 | 63.7 | 60.8 | 62.9 | 66.4 | 20 | 69.2 | 46.2 | growth at 10 µM (MOLT-4): 39%; growth at 10 µM (CAKI-1): 52.1%; growth at 10 µM (SN12C): 70.9%; growth at 10 µM (TK-10): 98.7%; growth at 10 µM (MCF7 [3]): 15.8%; CC50 (U-937): 1 µg/mL (≈ 2.66 µM); EC50 (Plasmodium falciparum): > 20 µg/mL; EC50 (Trypanosoma cruzi): 2.68 µg/mL (≈ 7.14 µM); EC50 (Leishmania panamensis): 3.35 µg/mL (≈ 8.92 µM) |
| COc1cccc2c1C(=O)c1c(O)c3c(c(O)c1C2=O)C[C@@](O)(C(=O)CO)C[C@@H]3O[C@H]1C[C@H](N)[C@H](O)[C@H](C)O1 [DOXORUBICIN] | – | – | – | – | – | – | – | – | – | – | – | – | – | – | – | – | – | – | – | – | GI50 (SR [4]): 30 nM; GI50 (NCI-H322M [5]): 540 nM; CC50 (NCI/ADR-RES): 100000 nM; GI50 (MCF7 [6]): 40 nM |
